Source: US20240050428A1 (Cullgen (Shanghai), Inc., priority 2020, published 2024)
Read-outs that look alike come from different tables or passages of the source.

What was measured:
MV4;11 cells = test: Cell viability assay (CellTiter-Glo) in MV4;11 cells, alone or with gilteritinib; assay type: cell-based; conditions: Homo sapiens, MV4;11 cells, three days, CellTiter-Glo, read-out: MV4
MOLM-13 cells = test: Cell viability assay (CellTiter-Glo) in MOLM-13 cells, alone or with gilteritinib; assay type: cell-based; conditions: Homo sapiens, MOLM-13 cells, three days, CellTiter-Glo
[1] = MV4-11, 72 h, compound alone (without gilteritinib), 11 IC50
[2] = MV4-11, 72 h, compound with gilteritinib 10 nM, 11 IC50 gilteritinib
[3] = MOLM-13, 72 h, compound alone (without gilteritinib), read-out: MOLM-13 IC50
[4] = MOLM-13, 72 h, compound with gilteritinib 20 nM, read-out: MOLM-13 IC50 gilteritinib
[5] = 72 h, compound alone (without gilteritinib), 11 IC50
[6] = 72 h, compound with gilteritinib 10 nM, 11 IC50 gilteritinib
[7] = 72 h, compound alone (without gilteritinib), read-out: MOLM-13 IC50
[8] = 72 h, compound with gilteritinib 20 nM, read-out: MOLM-13 IC50 gilteritinib

Compound	IC50 (MV4;11 cells; [1]) [nM]	IC50 (MV4;11 cells; [2]) [nM]	IC50 (MOLM-13 cells; [3]) [nM]	IC50 (MOLM-13 cells; [4]) [nM]	IC50 (MV4;11 cells; [5]) [nM]	IC50 (MV4;11 cells; [6]) [nM]	IC50 (MOLM-13 cells; [7]) [nM]	IC50 (MOLM-13 cells; [8]) [nM]
O=C1CCC(N2C(=O)c3ccc(NCCCCC(=O)N4CCC(n5cc(-c6cnc7ccc(C8=CCNCC8)cc7n6)cn5)CC4)cc3C2=O)C(=O)N1 (stereo not drawn) [GS-544, 2-(2,6-Dioxopiperidin-3-yl)-5-((5-oxo-5-(4-(4-(7-(1,2,3,6-tetrahydropyridin-4-yl)quinoxalin-2-yl)-1H-pyrazol-1-yl)piperidin-1-yl)pentyl)amino)isoindoline-1,3-dione]	100 to 1000	< 10	100 to 1000	< 10	–	–	–	–
O=C1CCC(N2C(=O)c3ccc(NCCCCC(=O)N4CCC(c5cnc6ccccc6n5)CC4)cc3C2=O)C(=O)N1 (stereo not drawn) [GS-545, 2-(2,6-Dioxopiperidin-3-yl)-5-((5-oxo-5-(4-(quinoxalin-2-yl)piperidin-1-yl)pentyl)amino)isoindoline-1,3-dione]	> 1000	100 to 1000	100 to 1000	10 to 100	–	–	–	–
Cc1cn(CCCCCCNc2ccc3c(c2)C(=O)N(C2CCC(=O)NC2=O)C3=O)nc1-c1cnc2ccccc2n1 (stereo not drawn) [GS-546, 2-(2,6-Dioxopiperidin-3-yl)-5-((6-(4-methyl-3-(quinoxalin-2-yl)-TH-pyrazol-1-yl)hexyl)amino)isoindoline-1,3-dione]	> 1000	100 to 1000	> 1000	10 to 100	–	–	–	–
O=C1CCC(N2C(=O)c3ccc(NCCCCCCn4cc(-c5nc6ccccc6nc5C(F)F)cn4)cc3C2=O)C(=O)N1 (stereo not drawn) [GS-547, 5-((6-(4-(3-(Difluoromethyl)quinoxalin-2-yl)-1H-pyrazol-1-yl)hexyl)amino)-2-(2,6-dioxopiperidin-3-yl)isoindoline-1,3-dione]	–	–	–	–	100 to 1000	10 to 100	> 1000	10 to 100
CN1CCC(c2ccc3ncc(-c4cnn(CCCCCCNc5ccc6c(c5)C(=O)N(C5CCC(=O)NC5=O)C6=O)c4)nc3c2)CC1 (stereo not drawn) [GS-548, 2-(2,6-Dioxopiperidin-3-yl)-5-((6-(4-(7-(1-methylpiperidin-4-yl)quinoxalin-2-yl)-1H-pyrazol-1-yl)hexyl)amino)isoindoline-1,3-dione]	100 to 1000	< 10	100 to 1000	< 10	–	–	–	–
Cc1nn(CCCCCCNc2ccc3c(c2)C(=O)N(C2CCC(=O)NC2=O)C3=O)c(C)c1-c1ccc2ccccc2n1 (stereo not drawn) [GS-549, 5-((6-(3,5-Dimethyl-4-(quinolin-2-yl)-1H-pyrazol-1-yl)hexyl)amino)-2-(2,6-dioxopiperidin-3-yl)isoindoline-1,3-dione]	100 to 1000	10 to 100	100 to 1000	< 10	–	–	–	–
O=C1CCC(N2C(=O)c3ccc(NCCCCCCn4cc(-c5cnc6ccccc6n5)c(C(F)(F)F)n4)cc3C2=O)C(=O)N1 (stereo not drawn) [GS-550, 2-(2,6-Dioxopiperidin-3-yl)-5-((6-(4-(quinoxalin-2-yl)-3-(trifluoromethyl)-1H-pyrazol-1-yl)hexyl)amino)isoindoline-1,3-dione]	100 to 1000	10 to 100	100 to 1000	10 to 100	–	–	–	–
O=C1CCC(N2C(=O)c3ccc(NCCCCC(F)(F)Cn4cc(-c5cnc6ccccc6n5)cn4)cc3C2=O)C(=O)N1 (stereo not drawn) [GS-551, 5-((5,5-Difluoro-6-(4-(quinoxalin-2-yl)-1H-pyrazol-1-yl)hexyl)amino)-2-(2,6-dioxopiperidin-3-yl)isoindoline-1,3-dione]	–	–	–	–	> 1000	100 to 1000	> 1000	10 to 100
O=C1CCC(N2C(=O)c3ccc(NCCCCCCn4cc(-c5cnc6ccccc6n5)c(C5CC5)n4)cc3C2=O)C(=O)N1 (stereo not drawn) [GS-552, 5-((6-(3-Cyclopropyl-4-(quinoxalin-2-yl)-1H-pyrazol-1-yl)hexyl)amino)-2-(2,6-dioxopiperidin-3-yl)isoindoline-1,3-dione]	100 to 1000	10 to 100	100 to 1000	< 10	–	–	–	–
O=C1CCC(N2C(=O)c3ccc(NCCCCCCn4ncc(-c5cnc6ccccc6n5)c4C4CC4)cc3C2=O)C(=O)N1 (stereo not drawn) [GS-553, 5-((6-(5-cyclopropyl-4-(quinoxalin-2-yl)-1H-pyrazol-1-yl)hexyl)amino)-2-(2,6-dioxopiperidin-3-yl)isoindoline-1,3-dione]	> 1000	10 to 100	> 1000	10 to 100	–	–	–	–
O=C1CCC(N2C(=O)c3ccc(NCCCCCCn4nc(C(F)(F)F)c(-c5cnc6ccccc6n5)c4C(F)(F)F)cc3C2=O)C(=O)N1 (stereo not drawn) [GS-554, 2-(2,6-Dioxopiperidin-3-yl)-5-((6-(4-(quinoxalin-2-yl)-3,5-bis(trifluoromethyl)-1H-pyrazol-1-yl)hexyl)amino)isoindoline-1,3-dione]	100 to 1000	10 to 100	> 1000	10 to 100	–	–	–	–
O=C1CCC(N2C(=O)c3ccc(NCCCCCCn4cc(-c5cnc6cccc(C(F)(F)F)c6n5)cn4)cc3C2=O)C(=O)N1 (stereo not drawn) [GS-555, 2-(2,6-Dioxopiperidin-3-yl)-5-((6-(4-(8-(trifluoromethyl)quinoxalin-2-yl)-1H-pyrazol-1-yl)hexyl)amino)isoindoline-1,3-dione]	100 to 1000	10 to 100	100 to 1000	< 10	–	–	–	–
O=C1CCC(N2C(=O)c3ccc(NC4CC(CCCn5cc(-c6cnc7ccccc7n6)cn5)C4)cc3C2=O)C(=O)N1 (stereo not drawn) [GS-556]	> 1000	> 1000	> 1000	> 1000	–	–	–	–
O=C1CCC(N2C(=O)c3ccc(NCCCCCCn4ncc(-c5cnc6ccccc6n5)c4C(F)F)cc3C2=O)C(=O)N1 (stereo not drawn) [GS-557, 5-((6-(5-(Difluoromethyl)-4-(quinoxalin-2-yl)-1H-pyrazol-1-yl)hexyl)amino)-2-(2,6-dioxopiperidin-3-yl)isoindoline-1,3-dione]	10 to 100	< 10	10 to 100	< 10	–	–	–	–
O=C1CCC(N2C(=O)c3ccc(NCCC4CC(Cn5cc(-c6cnc7ccccc7n6)cn5)C4)cc3C2=O)C(=O)N1 (stereo not drawn) [GS-558, 2-(2,6-Dioxopiperidin-3-yl)-5-((2-(3-((4-(quinoxalin-2-yl)-1H-pyrazol-1-yl)methyl)cyclobutyl)ethyl)amino)isoindoline-1,3-dione]	–	–	–	–	100 to 1000	100 to 1000	> 1000	10 to 100
O=C1CCC(N2C(=O)c3ccc(NCCCCCCn4cc(-c5cnc6ccc(C(F)(F)F)cc6n5)cn4)cc3C2=O)C(=O)N1 (stereo not drawn) [GS-559]	10 to 100	10 to 100	10 to 100	< 10	–	–	–	–
O=C1CCC(N2C(=O)c3ccc(NCCC4CC(n5cc(-c6cnc7ccccc7n6)cn5)C4)cc3C2=O)C(=O)N1 (stereo not drawn) [GS-561, 2-(2,6-Dioxopiperidin-3-yl)-5-((2-(3-(4-(quinoxalin-2-yl)-1H-pyrazol-1-yl)cyclobutyl)ethyl)amino)isoindoline-1,3-dione]	> 1000	100 to 1000	> 1000	10 to 100	–	–	–	–
O=C1CCC(N2C(=O)c3ccc(NCCCCCCn4cc(-c5cnc6ccc(C7CC7)cc6n5)cn4)cc3C2=O)C(=O)N1 (stereo not drawn) [GS-562, 5-((6-(4-(7-Cyclopropylquinoxalin-2-yl)-1H-pyrazol-1-yl)hexyl)amino)-2-(2,6-dioxopiperidin-3-yl)isoindoline-1,3-dione]	10 to 100	10 to 100	10 to 100	< 10	–	–	–	–
